Assays:
Escherichia coli [1] = assay: Antimicrobial activity against Escherichia coli ATCC 25922 after 24 hrs by NCCLS-protocol based assay; type: functional; conditions: ATCC 25922, 24 h
Escherichia coli [2] = assay: Antimicrobial activity against Escherichia coli UB1005 after 24 hrs by NCCLS-protocol based assay; type: functional; conditions: UB1005, 24 h
Escherichia coli [3] = assay: Antimicrobial activity against Escherichia coli 078 after 24 hrs by NCCLS-protocol based assay; type: functional; conditions: Escherichia coli, 078, 24 h
Escherichia coli [4] = assay: Antimicrobial activity against Escherichia coli K88 after 24 hrs by NCCLS-protocol based assay; type: functional; conditions: K88, 24 h
Escherichia coli [5] = assay: Antimicrobial activity against Escherichia coli K99 after 24 hrs by NCCLS-protocol based assay; type: functional; conditions: K99, 24 h
Pseudomonas aeruginosa [6] = assay: Antimicrobial activity against Pseudomonas aeruginosa ATCC 27853 after 24 hrs by NCCLS-protocol based assay; type: functional; conditions: ATCC 27853, 24 h
Pseudomonas aeruginosa [7] = assay: Antimicrobial activity against Pseudomonas aeruginosa PAO1 after 24 hrs by NCCLS-protocol based assay; type: functional; conditions: PAO1, 24 h
Pseudomonas aeruginosa [8] = assay: Antimicrobial activity against Pseudomonas aeruginosa CICC 21630 clinical isolates after 24 hrs by NCCLS-protocol based assay; type: functional; conditions: CICC 21630, 24 h
Pseudomonas aeruginosa [9] = assay: Antimicrobial activity against Pseudomonas aeruginosa 26305 clinical isolates after 24 hrs by NCCLS-protocol based assay; type: functional; conditions: Pseudomonas aeruginosa, 26305, 24 h
Pseudomonas aeruginosa [10] = assay: Antimicrobial activity against Pseudomonas aeruginosa CICC 21625 clinical isolates after 24 hrs by NCCLS-protocol based assay; type: functional; conditions: CICC 21625, 24 h
Pseudomonas aeruginosa [11] = assay: Antimicrobial activity against Pseudomonas aeruginosa 25349 clinical isolates after 24 hrs by NCCLS-protocol based assay; type: functional; conditions: Pseudomonas aeruginosa, 25349, 24 h
Salmonella typhimurium [12] = assay: Antimicrobial activity against Salmonella typhimurium ATCC 14028 after 24 hrs by NCCLS-protocol based assay; type: functional, Salmonella enterica subsp. enterica serovar Typhimurium; conditions: Salmonella enterica, ATCC 14028, 24 h
Salmonella typhimurium [13] = assay: Antimicrobial activity against Salmonella typhimurium C7731 after 24 hrs by NCCLS-protocol based assay; type: functional, Salmonella enterica subsp. enterica serovar Typhimurium; conditions: Salmonella enterica, C7731, 24 h
[14] = Antimicrobial activity against Salmonella pullorum C7913 after 24 hrs by NCCLS-protocol based assay; type: functional, Salmonella enterica subsp. enterica serovar Pullorum; conditions: Salmonella enterica, C7913, 24 h
Acinetobacter baumannii [15] = assay: Antimicrobial activity against Acinetobacter baumannii after 24 hrs by NCCLS-protocol based assay; type: functional
Klebsiella pneumoniae [16] = assay: Antimicrobial activity against Klebsiella pneumoniae after 24 hrs by NCCLS-protocol based assay; type: functional
Escherichia coli [17] = assay: Bactericidal activity against Escherichia coli ATCC 25922 incubated for 4 hrs followed by culture spread on agar plates and cultured overnight; type: functional; conditions: ATCC 25922, 4 h, read-out: MBC>99.9
Escherichia coli [18] = assay: Bactericidal activity against Escherichia coli ATCC 25922 incubated for 4 hrs followed by culture spread on agar plates and cultured overnight in presence of NaCl; type: functional; conditions: ATCC 25922, 4 h, read-out: MBC>99.9
Escherichia coli [19] = assay: Bactericidal activity against Escherichia coli ATCC 25922 incubated for 4 hrs followed by culture spread on agar plates and cultured overnight in presence of KCl; type: functional; conditions: ATCC 25922, 4 h, read-out: MBC>99.9
Escherichia coli [20] = assay: Bactericidal activity against Escherichia coli ATCC 25922 incubated for 4 hrs followed by culture spread on agar plates and cultured overnight in presence of CaCl2; type: functional; conditions: ATCC 25922, 4 h, read-out: MBC>99.9
Escherichia coli [21] = assay: Bactericidal activity against Escherichia coli ATCC 25922 incubated for 4 hrs followed by culture spread on agar plates and cultured overnight in presence of ZnCl2; type: functional; conditions: ATCC 25922, 4 h, read-out: MBC>99.9
Escherichia coli [22] = assay: Bactericidal activity against Escherichia coli ATCC 25922 incubated for 4 hrs followed by culture spread on agar plates and cultured overnight in presence of FeCl3; type: functional; conditions: ATCC 25922, 4 h, read-out: MBC>99.9
Escherichia coli [23] = assay: Bactericidal activity against Escherichia coli ATCC 25922 incubated for 4 hrs followed by culture spread on agar plates and cultured overnight in presence of NH4Cl; type: functional; conditions: ATCC 25922, 4 h, read-out: MBC>99.9
Escherichia coli [24] = assay: Bactericidal activity against Escherichia coli ATCC 25922 incubated for 4 hrs followed by culture spread on agar plates and cultured overnight in presence of MgCl2; type: functional; conditions: ATCC 25922, 4 h, read-out: MBC>99.9
Escherichia coli [25] = assay: Bactericidal activity against Escherichia coli ATCC 25922 incubated for 4 hrs followed by culture spread on agar plates and cultured overnight in presence of 50% serum albumin; type: functional; conditions: ATCC 25922, 4 h, read-out: MBC>99.9
Escherichia coli [26] = assay: Bactericidal activity against Escherichia coli ATCC 25922 incubated for 4 hrs followed by culture spread on agar plates and cultured overnight in presence of 25% serum albumin; type: functional; conditions: ATCC 25922, 4 h, read-out: MBC>99.9
Escherichia coli [27] = assay: Bactericidal activity against Escherichia coli ATCC 25922 incubated for 4 hrs followed by culture spread on agar plates and cultured overnight in presence of 12.5% serum albumin; type: functional; conditions: ATCC 25922, 4 h, read-out: MBC>99.9
Escherichia coli [28] = assay: Bactericidal activity against Escherichia coli UB1005 incubated for 4 hrs followed by culture spread on agar plates and cultured overnight; type: functional; conditions: UB1005, 4 h, read-out: MBC>99.9
Escherichia coli [29] = assay: Bactericidal activity against Escherichia coli 078 incubated for 4 hrs followed by culture spread on agar plates and cultured overnight; type: functional; conditions: Escherichia coli, 078, 4 h; read-out: MBC>99.9
Escherichia coli [30] = assay: Bactericidal activity against Escherichia coli K88 incubated for 4 hrs followed by culture spread on agar plates and cultured overnight; type: functional; conditions: K88, 4 h, read-out: MBC>99.9
Escherichia coli [31] = assay: Bactericidal activity against Escherichia coli K99 incubated for 4 hrs followed by culture spread on agar plates and cultured overnight; type: functional; conditions: K99, 4 h, read-out: MBC>99.9
Pseudomonas aeruginosa [32] = assay: Bactericidal activity against Pseudomonas aeruginosa ATCC 27853 incubated for 4 hrs followed by culture spread on agar plates and cultured overnight; type: functional; conditions: ATCC 27853, 4 h, read-out: MBC>99.9
Pseudomonas aeruginosa [33] = assay: Bactericidal activity against Pseudomonas aeruginosa PAO1 incubated for 4 hrs followed by culture spread on agar plates and cultured overnight; type: functional; conditions: PAO1, 4 h, read-out: MBC>99.9
Pseudomonas aeruginosa [34] = assay: Bactericidal activity against Pseudomonas aeruginosa CICC 21630 clinical isolates incubated for 4 hrs followed by culture spread on agar plates and cultured overnight; type: functional; conditions: CICC 21630, 4 h, read-out: MBC>99.9
Pseudomonas aeruginosa [35] = assay: Bactericidal activity against Pseudomonas aeruginosa 26305 clinical isolates incubated for 4 hrs followed by culture spread on agar plates and cultured overnight; type: functional; conditions: Pseudomonas aeruginosa, 26305, 4 h; read-out: MBC>99.9
Pseudomonas aeruginosa [36] = assay: Bactericidal activity against Pseudomonas aeruginosa CICC 21625 clinical isolates incubated for 4 hrs followed by culture spread on agar plates and cultured overnight; type: functional; conditions: CICC 21625, 4 h, read-out: MBC>99.9
Pseudomonas aeruginosa [37] = assay: Bactericidal activity against Pseudomonas aeruginosa 25349 clinical isolates incubated for 4 hrs followed by culture spread on agar plates and cultured overnight; type: functional; conditions: Pseudomonas aeruginosa, 25349, 4 h; read-out: MBC>99.9
Salmonella typhimurium [38] = assay: Bactericidal activity against Salmonella typhimurium ATCC 14028 incubated for 4 hrs followed by culture spread on agar plates and cultured overnight; type: functional, Salmonella enterica subsp. enterica serovar Typhimurium; conditions: Salmonella enterica, ATCC 14028, 4 h; read-out: MBC>99.9
Salmonella typhimurium [39] = assay: Bactericidal activity against Salmonella typhimurium C7731 incubated for 4 hrs followed by culture spread on agar plates and cultured overnight; type: functional, Salmonella enterica subsp. enterica serovar Typhimurium; conditions: Salmonella enterica, C7731, 4 h; read-out: MBC>99.9
[40] = Bactericidal activity against Salmonella pullorum C7913 incubated for 4 hrs followed by culture spread on agar plates and cultured overnight; type: functional, Salmonella enterica subsp. enterica serovar Pullorum; conditions: Salmonella enterica, C7913, 4 h; read-out: MBC>99.9
Acinetobacter baumannii [41] = assay: Bactericidal activity against Acinetobacter baumannii incubated for 4 hrs followed by culture spread on agar plates and cultured overnight; type: functional; conditions: read-out: MBC>99.9
Klebsiella pneumoniae [42] = assay: Bactericidal activity against Klebsiella pneumoniae incubated for 4 hrs followed by culture spread on agar plates and cultured overnight; type: functional; conditions: read-out: MBC>99.9

## H-IRPIIRPIIRPIIRPIIRPIIRPI-NH2
Escherichia coli [1]
  MIC95: 2 µM
Escherichia coli [2]
  MIC95: 2 µM
Escherichia coli [3]
  MIC95: 2 µM
Escherichia coli [4]
  MIC95: 1 µM
Escherichia coli [5]
  MIC95: 2 µM
Pseudomonas aeruginosa [6]
  MIC95: 8 µM
Pseudomonas aeruginosa [7]
  MIC95: 8 µM
Pseudomonas aeruginosa [8]
  MIC95: > 64 µM
Pseudomonas aeruginosa [9]
  MIC95: > 64 µM
Pseudomonas aeruginosa [10]
  MIC95: > 64 µM
Pseudomonas aeruginosa [11]
  MIC95: > 64 µM
Salmonella typhimurium [12]
  MIC95: 4 µM
Salmonella typhimurium [13]
  MIC95: 4 µM
[14]
  MIC95: 4 µM
Acinetobacter baumannii [15]
  MIC95: 4 µM
Klebsiella pneumoniae [16]
  MIC95: 16 µM
Escherichia coli [17]
  MBC: 2 µM
Escherichia coli [18]
  MBC: 32 µM
Escherichia coli [19]
  MBC: 4 µM
Escherichia coli [20]
  MBC: > 128 µM
Escherichia coli [21]
  MBC: 4 µM
Escherichia coli [22]
  MBC: 8 µM
Escherichia coli [23]
  MBC: 8 µM
Escherichia coli [24]
  MBC: 8 µM
Escherichia coli [25]
  MBC: 64 µM
Escherichia coli [26]
  MBC: 32 µM
Escherichia coli [27]
  MBC: 16 µM
Escherichia coli [28]
  MBC: 2 µM
Escherichia coli [29]
  MBC: 2 µM
Escherichia coli [30]
  MBC: 1 µM
Escherichia coli [31]
  MBC: 4 µM
Pseudomonas aeruginosa [32]
  MBC: 16 µM
Pseudomonas aeruginosa [33]
  MBC: 16 µM
Pseudomonas aeruginosa [34]
  MBC: > 64 µM
Pseudomonas aeruginosa [35]
  MBC: > 64 µM
Pseudomonas aeruginosa [36]
  MBC: > 64 µM
Pseudomonas aeruginosa [37]
  MBC: > 64 µM
Salmonella typhimurium [38]
  MBC: 4 µM
Salmonella typhimurium [39]
  MBC: 4 µM
[40]
  MBC: 8 µM
Acinetobacter baumannii [41]
  MBC: 8 µM
Klebsiella pneumoniae [42]
  MBC: 8 µM
